Measurements as given in US20230085307A1, “PYRIDAZINONE COMPOUND AND HERBICIDE” (NISSAN CHEMICAL CORPORATION, priority 2019, published 2023).

System: Japanese bulrush
Assay: Test Example 1: herbicidal activity, application before weed generation under submerged conditions (Table 16, symbol B)
Type: in vivo, Japanese bulrush (Schoenoplectus juncoides)
Settings: 320 g/ha applied herbicide
How it was run: (§1)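 Alluvial soil was flooded to 4 cm depth, weed seeds were sown mixed and 2.5-leaf rice seedlings were transplanted. On sowing day, the compound's emulsion, diluted in water to a set dose, was applied to the water surface. Plants grew at 25–30 °C and were scored 0–5 after three weeks.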

| SMILES | Herbicidal effect on B: Japanese bulrush (grade 0-5) |
| --- | --- |
| Cc1nn(C)c(=O)c(-c2c(-c3ccc(OCCC(F)(F)F)cc3)sc3ccccc23)c1O [1-206] | 5 (Herbicidal rate of 90% or more (almost completely withered)) |
| C=C(C)COc1ccc(-c2sc3ccccc3c2-c2c(O)c(C)nn(C)c2=O)cc1 [1-208] | 5 (Herbicidal rate of 90% or more (almost completely withered)) |
| C=C(Br)COc1ccc(-c2sc3ccccc3c2-c2c(O)c(C)nn(C)c2=O)cc1 [1-215] | 4 (Herbicidal rate of 70% or more and less than 90%) |

System: oval-leafed pondweed
Assay: Test Example 1: herbicidal activity, application before weed generation under submerged conditions (Table 16, symbol C)
Type: in vivo, oval-leafed pondweed (Monochoria vaginalis)
Settings: 320 g/ha applied herbicide
How it was run: as §1

| SMILES | Herbicidal effect on C: oval-leafed pondweed (grade 0-5) |
| --- | --- |
| Cc1nn(C)c(=O)c(-c2c(-c3ccc(OCCC(F)(F)F)cc3)sc3ccccc23)c1O [1-206] | 5 (Herbicidal rate of 90% or more (almost completely withered)) |
| C=C(C)COc1ccc(-c2sc3ccccc3c2-c2c(O)c(C)nn(C)c2=O)cc1 [1-208] | 5 (Herbicidal rate of 90% or more (almost completely withered)) |
| C=C(Br)COc1ccc(-c2sc3ccccc3c2-c2c(O)c(C)nn(C)c2=O)cc1 [1-215] | 4 (Herbicidal rate of 70% or more and less than 90%) |

System: Japanese bulrush
Assay: Test Example 2: herbicidal activity, application during weed generation under submerged conditions (Table 17, symbol B)
Type: in vivo, Japanese bulrush (Schoenoplectus juncoides)
Settings: AAH 320 g/ha; application during weed generation, submerged conditions
How it was run: (§2)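 Alluvial soil in Wagner pots was flooded to 4 cm depth and sown with the three weeds together; pots were kept in a greenhouse at 25° C. to 30° C. At the one to two leaf stage, an emulsion formulation diluted in water to a set rate went onto the water surface; scored three weeks later.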

| SMILES | herbicidal effect rating, B: Japanese bulrush |
| --- | --- |
| Cc1nn(C)c(=O)c(-c2c(-c3ccc(OCCC(F)(F)F)cc3)sc3ccccc23)c1O [1-206] | 3 (Herbicidal rate of 40% or more and less than 70%) |
| C=C(C)COc1ccc(-c2sc3ccccc3c2-c2c(O)c(C)nn(C)c2=O)cc1 [1-208] | 3 (Herbicidal rate of 40% or more and less than 70%) |
| C=C(Br)COc1ccc(-c2sc3ccccc3c2-c2c(O)c(C)nn(C)c2=O)cc1 [1-215] | 3 (Herbicidal rate of 40% or more and less than 70%) |

System: oval-leafed pondweed
Assay: Test Example 2: herbicidal activity, application during weed generation under submerged conditions (Table 17, symbol C)
Type: in vivo, oval-leafed pondweed (Monochoria vaginalis)
Settings: AAH 320 g/ha; application during weed generation, submerged conditions
How it was run: as §2

| SMILES | herbicidal effect rating, C: oval-leafed pondweed |
| --- | --- |
| Cc1nn(C)c(=O)c(-c2c(-c3ccc(OCCC(F)(F)F)cc3)sc3ccccc23)c1O [1-206] | 5 (Herbicidal rate of 90% or more (almost completely withered)) |
| C=C(C)COc1ccc(-c2sc3ccccc3c2-c2c(O)c(C)nn(C)c2=O)cc1 [1-208] | 3 (Herbicidal rate of 40% or more and less than 70%) |
| C=C(Br)COc1ccc(-c2sc3ccccc3c2-c2c(O)c(C)nn(C)c2=O)cc1 [1-215] | 3 (Herbicidal rate of 40% or more and less than 70%) |

System: green foxtail
Assay: Test Example 4: herbicidal effect by soil treatment (Table 19, symbol G)
Type: in vivo, green foxtail (Setaria viridis)
Settings: AAH 320 g/ha
How it was run: (§3)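 In this soil treatment, the formulated compound reached the seeds only through the soil: seeds were buried about 1.5 cm deep in sterilized diluvial soil, then the diluted emulsion was sprayed over the surface. After three weeks at 25° C. to 30° C. in a greenhouse, effects were graded on criteria from an earlier test.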

| SMILES | G: green foxtail, herbicidal effect rating |
| --- | --- |
| Cc1nn(C)c(=O)c(-c2c(-c3ccc(OCCC(F)(F)F)cc3)sc3ccccc23)c1O [1-206] | 5 (Herbicidal rate of 90% or more (almost completely withered)) |
| C=C(C)COc1ccc(-c2sc3ccccc3c2-c2c(O)c(C)nn(C)c2=O)cc1 [1-208] | 0 (Herbicidal rate of 5% or less (almost no effect)) |
| C=C(Br)COc1ccc(-c2sc3ccccc3c2-c2c(O)c(C)nn(C)c2=O)cc1 [1-215] | 0 (Herbicidal rate of 5% or less (almost no effect)) |

System: barnyard grass
Assay: Test Example 4: herbicidal effect by soil treatment (Table 19, symbol H)
Type: in vivo, barnyard grass (Echinochloa crus-galli)
Settings: AAH 320 g/ha
How it was run: as §3

| SMILES | H: barnyard grass, herbicidal effect rating |
| --- | --- |
| Cc1nn(C)c(=O)c(-c2c(-c3ccc(OCCC(F)(F)F)cc3)sc3ccccc23)c1O [1-206] | 5 (Herbicidal rate of 90% or more (almost completely withered)) |
| C=C(C)COc1ccc(-c2sc3ccccc3c2-c2c(O)c(C)nn(C)c2=O)cc1 [1-208] | 0 (Herbicidal rate of 5% or less (almost no effect)) |
| C=C(Br)COc1ccc(-c2sc3ccccc3c2-c2c(O)c(C)nn(C)c2=O)cc1 [1-215] | 0 (Herbicidal rate of 5% or less (almost no effect)) |

System: wild oat
Assay: Test Example 4: herbicidal effect by soil treatment (Table 19, symbol I)
Type: in vivo, wild oat (Avena fatua)
Settings: AAH 320 g/ha
How it was run: as §3

| SMILES | I: wild oat, herbicidal effect rating |
| --- | --- |
| Cc1nn(C)c(=O)c(-c2c(-c3ccc(OCCC(F)(F)F)cc3)sc3ccccc23)c1O [1-206] | 0 (Herbicidal rate of 5% or less (almost no effect)) |
| C=C(C)COc1ccc(-c2sc3ccccc3c2-c2c(O)c(C)nn(C)c2=O)cc1 [1-208] | 0 (Herbicidal rate of 5% or less (almost no effect)) |
| C=C(Br)COc1ccc(-c2sc3ccccc3c2-c2c(O)c(C)nn(C)c2=O)cc1 [1-215] | 0 (Herbicidal rate of 5% or less (almost no effect)) |

System: redroot pigweed
Assay: Test Example 4: herbicidal effect by soil treatment (Table 19, symbol N)
Type: in vivo, redroot pigweed (Amaranthus retroflexus)
Settings: AAH 320 g/ha
How it was run: as §3

| SMILES | N: redroot pigweed, herbicidal effect rating |
| --- | --- |
| Cc1nn(C)c(=O)c(-c2c(-c3ccc(OCCC(F)(F)F)cc3)sc3ccccc23)c1O [1-206] | 5 (Herbicidal rate of 90% or more (almost completely withered)) |
| C=C(C)COc1ccc(-c2sc3ccccc3c2-c2c(O)c(C)nn(C)c2=O)cc1 [1-208] | 0 (Herbicidal rate of 5% or less (almost no effect)) |
| C=C(Br)COc1ccc(-c2sc3ccccc3c2-c2c(O)c(C)nn(C)c2=O)cc1 [1-215] | 5 (Herbicidal rate of 90% or more (almost completely withered)) |

System: chickweed
Assay: Test Example 4: herbicidal effect by soil treatment (Table 19, symbol P)
Type: in vivo, common chickweed (Stellaria media)
Settings: AAH 320 g/ha
How it was run: as §3

| SMILES | P: chickweed, herbicidal effect rating |
| --- | --- |
| Cc1nn(C)c(=O)c(-c2c(-c3ccc(OCCC(F)(F)F)cc3)sc3ccccc23)c1O [1-206] | 3 (Herbicidal rate of 40% or more and less than 70%) |
| C=C(C)COc1ccc(-c2sc3ccccc3c2-c2c(O)c(C)nn(C)c2=O)cc1 [1-208] | 3 (Herbicidal rate of 40% or more and less than 70%) |
| C=C(Br)COc1ccc(-c2sc3ccccc3c2-c2c(O)c(C)nn(C)c2=O)cc1 [1-215] | 1 (Herbicidal rate of 5% or more and less than 20%) |

System: southern crabgrass
Assay: Test Example 5: herbicidal effect by foliage application, plastic box (Table 20, symbol F)
Type: in vivo, southern crabgrass (Digitaria ciliaris)
Settings: foliage application, 320 g/ha, 3 weeks after application
How it was run: (§4)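 Plants were sown into sterilized diluvial soil under about 1.5 cm cover and kept in a greenhouse at 25° C. to 30° C. Fourteen days on, foliage received an even spray of the diluted emulsion. Herbicidal or crop effect was judged three weeks afterwards.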

| SMILES | effect on southern crabgrass (F) |
| --- | --- |
| Cc1nn(C)c(=O)c(-c2c(-c3ccc(OCCC(F)(F)F)cc3)sc3ccccc23)c1O [1-206] | 5 (Herbicidal rate of 90% or more (almost completely withered)) |
| C=C(C)COc1ccc(-c2sc3ccccc3c2-c2c(O)c(C)nn(C)c2=O)cc1 [1-208] | 5 (Herbicidal rate of 90% or more (almost completely withered)) |
| C=C(Br)COc1ccc(-c2sc3ccccc3c2-c2c(O)c(C)nn(C)c2=O)cc1 [1-215] | 2 (Herbicidal rate of 20% or more and less than 40%) |

System: green foxtail
Assay: Test Example 5: herbicidal effect by foliage application, plastic box (Table 20, symbol G)
Type: in vivo, green foxtail (Setaria viridis)
Settings: foliage application, 320 g/ha, 3 weeks after application
How it was run: as §4

| SMILES | effect on green foxtail (G) |
| --- | --- |
| Cc1nn(C)c(=O)c(-c2c(-c3ccc(OCCC(F)(F)F)cc3)sc3ccccc23)c1O [1-206] | 5 (Herbicidal rate of 90% or more (almost completely withered)) |
| C=C(C)COc1ccc(-c2sc3ccccc3c2-c2c(O)c(C)nn(C)c2=O)cc1 [1-208] | 5 (Herbicidal rate of 90% or more (almost completely withered)) |
| C=C(Br)COc1ccc(-c2sc3ccccc3c2-c2c(O)c(C)nn(C)c2=O)cc1 [1-215] | 5 (Herbicidal rate of 90% or more (almost completely withered)) |

System: barnyard grass
Assay: Test Example 5: herbicidal effect by foliage application, plastic box (Table 20, symbol H)
Type: in vivo, barnyard grass (Echinochloa crus-galli)
Settings: foliage application, 320 g/ha, 3 weeks after application
How it was run: as §4

| SMILES | effect on barnyard grass (H) |
| --- | --- |
| Cc1nn(C)c(=O)c(-c2c(-c3ccc(OCCC(F)(F)F)cc3)sc3ccccc23)c1O [1-206] | 5 (Herbicidal rate of 90% or more (almost completely withered)) |
| C=C(C)COc1ccc(-c2sc3ccccc3c2-c2c(O)c(C)nn(C)c2=O)cc1 [1-208] | 5 (Herbicidal rate of 90% or more (almost completely withered)) |
| C=C(Br)COc1ccc(-c2sc3ccccc3c2-c2c(O)c(C)nn(C)c2=O)cc1 [1-215] | 5 (Herbicidal rate of 90% or more (almost completely withered)) |

System: wild oat
Assay: Test Example 5: herbicidal effect by foliage application, plastic box (Table 20, symbol I)
Type: in vivo, wild oat (Avena fatua)
Settings: foliage application, 320 g/ha, 3 weeks after application
How it was run: as §4

| SMILES | effect on wild oat (I) |
| --- | --- |
| Cc1nn(C)c(=O)c(-c2c(-c3ccc(OCCC(F)(F)F)cc3)sc3ccccc23)c1O [1-206] | 2 (Herbicidal rate of 20% or more and less than 40%) |
| C=C(C)COc1ccc(-c2sc3ccccc3c2-c2c(O)c(C)nn(C)c2=O)cc1 [1-208] | 4 (Herbicidal rate of 70% or more and less than 90%) |
| C=C(Br)COc1ccc(-c2sc3ccccc3c2-c2c(O)c(C)nn(C)c2=O)cc1 [1-215] | 3 (Herbicidal rate of 40% or more and less than 70%) |

System: windgrass
Assay: Test Example 5: herbicidal effect by foliage application, plastic box (Table 20, symbol L)
Type: in vivo, windgrass (Apera spica-venti)
Settings: foliage application, 320 g/ha, 3 weeks after application
How it was run: as §4

| SMILES | effect on windgrass (L) |
| --- | --- |
| Cc1nn(C)c(=O)c(-c2c(-c3ccc(OCCC(F)(F)F)cc3)sc3ccccc23)c1O [1-206] | 5 (Herbicidal rate of 90% or more (almost completely withered)) |
| C=C(C)COc1ccc(-c2sc3ccccc3c2-c2c(O)c(C)nn(C)c2=O)cc1 [1-208] | 4 (Herbicidal rate of 70% or more and less than 90%) |
| C=C(Br)COc1ccc(-c2sc3ccccc3c2-c2c(O)c(C)nn(C)c2=O)cc1 [1-215] | 5 (Herbicidal rate of 90% or more (almost completely withered)) |

System: persian speedwell
Assay: Test Example 5: herbicidal effect by foliage application, plastic box (Table 20, symbol R)
Type: in vivo, Persian speedwell (Veronica persica)
Settings: foliage application, 320 g/ha, 3 weeks after application
How it was run: as §4

| SMILES | effect on persian speedwell (R) |
| --- | --- |
| Cc1nn(C)c(=O)c(-c2c(-c3ccc(OCCC(F)(F)F)cc3)sc3ccccc23)c1O [1-206] | 5 (Herbicidal rate of 90% or more (almost completely withered)) |
| C=C(C)COc1ccc(-c2sc3ccccc3c2-c2c(O)c(C)nn(C)c2=O)cc1 [1-208] | 5 (Herbicidal rate of 90% or more (almost completely withered)) |
| C=C(Br)COc1ccc(-c2sc3ccccc3c2-c2c(O)c(C)nn(C)c2=O)cc1 [1-215] | 5 (Herbicidal rate of 90% or more (almost completely withered)) |
